Experimental data as given in ChEMBL document CHEMBL1155168, “Bound to shock: protection from lethal endotoxemic shock by a novel, nontoxic, alkylpolyamine lipopolysaccharide sequestrant” (Antimicrob Agents Chemother, 2007).
Active and inactive are the calls of the source. The calls are words filed in the database; no cut-off is given here.

Key:
HEK-Blue [1] = assay: Inhibition of TNF-alpha-stimulated NF-kappaB induction in HEK-Blue cells assessed as expression of secreted alkaline phosphatase by seAP assay; type: functional, cell-based; settings: Homo sapiens
HEK-Blue [2] = assay: Inhibition of phorbol esters-stimulated NF-kappaB induction in HEK-Blue cells assessed as expression of secreted alkaline phosphatase by seAP assay; type: functional, cell-based; settings: Homo sapiens
[3] = Inhibition of Escherichia coli 055:B5 lipopolysaccharide-stimulated NF-kappaB induction in HEK-Blue cells assessed as expression of secreted alkaline phosphatase by seAP assay; type: cell-based
[4] = Inhibition of Salmonella enterica serovar Abortus equi lipopolysaccharide-stimulated NF-kappaB induction in HEK-Blue cells assessed as expression of secreted alkaline phosphatase by seAP assay; type: cell-based
Escherichia coli [5] = assay: Displacement of BODIPY-cadaverine from Escherichia coli O111:B4 lipopolysaccharide
[6] = Inhibition of Vibrio cholerae lipopolysaccharide-stimulated NF-kappaB induction in HEK-Blue cells assessed as expression of secreted alkaline phosphatase by seAP assay; type: cell-based
[7] = Inhibition of LPS-stimulated NF-kappaB induction in HEK-Blue cells assessed as expression of secreted alkaline phosphatase by seAP assay; type: cell-based
Mus musculus [8] = assay: Increase in survivality of sc dosed D-galactosamine-primed CF1 mouse model of LPS-induced lethal septic shock administered 1 hr prior to LPS challenge; type: functional, organism-based
Mus musculus [9] = assay: Toxicity in mouse at 40 mg/kg/day, sc after 5 days; type: organism-based; parameters: route subcutaneous; settings: in vivo, 120 h
Mus musculus [10] = assay: Toxicity in mouse in mouse assessed as polyamine level in plasma at 40 mg/kg/day, sc for 5 days relative to control; type: organism-based; parameters: route subcutaneous; settings: in vivo, 120 h
Mus musculus [11] = assay: Increase in survivality of ip dosed D-galactosamine-primed mouse model of LPS-induced lethal septic shock administered as precomplex with LPS; type: functional, organism-based
[12] = Ex vivo inhibition of Escherichia coli lipopolysaccharide-stimulated IL8 production in human whole blood by multiplexed flow cytometric bead array system; type: tissue-based
J774.A1 = assay: Inhibition of LPS-stimulated nitric oxide production in mouse J774A.1 cells after 16 hrs; type: functional, cell-based
[13] = Inhibition of Pseudomonas aeruginosa lipopolysaccharide-stimulated NF-kappaB induction in HEK-Blue cells assessed as expression of secreted alkaline phosphatase by seAP assay; type: cell-based
HEK-Blue [14] = assay: Inhibition of IL-1-beta-stimulated NF-kappaB induction in HEK-Blue cells assessed as expression of secreted alkaline phosphatase by seAP assay; type: functional, cell-based; settings: Homo sapiens
Mus musculus [15] = assay: Inhibition of LPS-induced cytokines levels in D-galactosamine-primed mouse model of at 4 mg/kg, sc; type: functional, organism-based; parameters: dose 4 mg/kg
HEK-Blue [16] = assay: Inhibition of ionomycin-stimulated NF-kappaB induction in HEK-Blue cells assessed as expression of secreted alkaline phosphatase by seAP assay; type: functional, cell-based; settings: Homo sapiens
[17] = Inhibition of Escherichia coli O111:B4 lipopolysaccharide-stimulated NF-kappaB induction in HEK-Blue cells assessed as expression of secreted alkaline phosphatase by seAP assay; type: cell-based
[18] = Ex vivo inhibition of Escherichia coli lipopolysaccharide-stimulated IL6 production in human whole blood by multiplexed flow cytometric bead array system; type: tissue-based
Mus musculus [19] = assay: Increase in survivality of sc dosed D-galactosamine-primed mouse model of TNF-alpha-induced lethal septic shock; type: functional, organism-based
Blood = assay: Ex vivo inhibition of TNF-alpha-stimulated T180/Y182 dual phosphorylation of p38 MAPK in human whole blood by flow cytometry; type: functional, tissue-based
[20] = Ex vivo inhibition of Escherichia coli lipopolysaccharide-stimulated TNFalpha production in human whole blood by multiplexed flow cytometric bead array system; type: tissue-based
Escherichia coli [21] = assay: Ex vivo inhibition of Escherichia coli lipopolysaccharide-stimulated T180/Y182 dual phosphorylation of p38 MAPK in human whole blood by flow cytometry; type: tissue-based

Question: For `CCCCCCCCCCCCCCCCNCCCNCCCNCCCCNCCCN.O=C(O)C(F)(F)F`, which Activity (HEK-Blue [1]) is on record?
Answer: inactive

Question: And the Activity (HEK-Blue [2])?
Answer: inactive

Question: What about the IC50 ([3]; Escherichia coli, HEK-Blue) of the same compound?
Answer: 30 nM

Question: What about the IC50 ([4]; Salmonella enterica, HEK-Blue) of the same compound?
Answer: 82 nM

Question: What about the ED50 (Escherichia coli [5]) of the same compound?
Answer: 1200 nM

Question: What about the IC50 ([6]; Vibrio cholerae, HEK-Blue) of the same compound?
Answer: 30 nM

Question: And the IC50 ([7]; HEK-Blue)?
Answer: 32 nM

Question: What about the Activity (Mus musculus [8]) of the same compound?
Answer: Dose-dependent effect

Question: What about the Activity (Mus musculus [9]) of the same compound?
Answer: Non-toxic

Question: And the Activity (Mus musculus [10])?
Answer: Non-toxic

Question: And the Activity (Mus musculus [11])?
Answer: Dose-dependent effect

Question: And the IC50 ([12]; Escherichia coli, Blood)?
Answer: 3000 nM

Question: What about the IC50 (J774.A1; Mus musculus, J774.A1, 16 h) of the same compound?
Answer: 21 nM

Question: And the IC50 ([13]; Pseudomonas aeruginosa, HEK-Blue)?
Answer: 30 nM

Question: What about the Activity (HEK-Blue [14]) of the same compound?
Answer: inactive

Question: What about the Activity (Mus musculus [15]) of the same compound?
Answer: Active

Question: And the Activity (HEK-Blue [16])?
Answer: inactive

Question: And the IC50 ([17]; Escherichia coli, HEK-Blue)?
Answer: 30 nM

Question: What about the IC50 ([18]; Escherichia coli, Blood) of the same compound?
Answer: 3000 nM

Question: What about the Activity (Mus musculus [19]) of the same compound?
Answer: inactive

Question: And the Activity (Blood)?
Answer: inactive

Question: And the IC50 ([20]; Escherichia coli, Blood)?
Answer: 3000 nM

Question: With POLYMYXIN B [listing 1 of 2 here] as the compound, how does the IC50 ([3]; hek-blue) read?
Answer: 30 nM

Question: And the IC50 ([4]; hek-blue)?
Answer: 562 nM

Question: What about the IC50 ([6]; hek-blue) of the same compound?
Answer: 30 nM

Question: And the IC50 ([7]; hek-blue)?
Answer: 32 nM

Question: What about the IC50 [12] of the same compound?
Answer: 11000 nM

Question: And the IC50 (J774.A1; j774.a1)?
Answer: 27 nM

Question: And the IC50 ([13]; hek-blue)?
Answer: 30 nM

Question: What about the IC50 ([17]; hek-blue) of the same compound?
Answer: 30 nM

Question: What about the IC50 [18] of the same compound?
Answer: 11000 nM

Question: What about the IC50 [20] of the same compound?
Answer: 11000 nM

Question: For POLYMYXIN B [listing 2 of 2 here], which Activity (HEK-Blue [1]) is on record?
Answer: inactive

Question: And the Activity (HEK-Blue [2])?
Answer: inactive

Question: And the ED50 (Escherichia coli [5])?
Answer: 1310 nM

Question: And the Activity (Escherichia coli [21])?
Answer: Dose-dependent effect

Question: And the Activity (Mus musculus [8])?
Answer: Dose-dependent effect

Question: And the Activity (Mus musculus [11])?
Answer: Dose-dependent effect

Question: What about the Activity (HEK-Blue [14]) of the same compound?
Answer: inactive

Question: And the Activity (HEK-Blue [16])?
Answer: inactive

Question: And the Activity (Blood)?
Answer: inactive
